Source: patent publication US12643859B2, “Pyridyl oxycarboxylic acid oxime derivative and preparation method therefor, weeding composition and application thereof” (Qingdao Kingagroot Chemical Compound Co., Ltd., priority 2018, dated 2026)

Test system: Monocotyledonous and dicotyledonous weed seeds and main crop seeds
Experiment: Post-emergence test experiment (Table 3, 1000 g a.i./ha)
Assay type: in vivo
Conditions: 3 weeks in greenhouse, fresh weight inhibition
Protocol: The above described growth inhibition rate is fresh weight inhibition rate.
Post-emergence test experiment: Monocotyledonous and dicotyledonous weed seeds and main crop seeds (i. e. wheat, corn, rice, soybean, cotton, oilseed, millet and sorghum.) were put into a plastic pot loaded with soil. Then covered with 0.5-2 cm soil, the seeds were allowed to grow in good greenhouse environment. The test plants were treated at 2-3 leaf stage 2 weeks after sowing. The test compounds of the invention were dissolved with acetone respectively, then added with tween-80, and using 1.5 liters per hectare of an emulsible concentrate of methyl oleate as a synergist, and diluted by certain amount of water to certain concentration. The solution was sprayed to the plants with a sprayer. Then the plants were cultured for 3 weeks in the greenhouse, and the experiment result of weed controlling effect was listed in tables 3-4.

SMILES | Activity level (growth inhibition rate) Digitaria sanguinalis | Activity level (growth inhibition rate) Echinochloa crusgalli | Activity level (growth inhibition rate) Galium spurium | Activity level (growth inhibition rate) Leptochloa chinensis | Activity level (growth inhibition rate) Monochoria Vaginalis | Activity level (growth inhibition rate) Murdannia triquetra | Activity level (growth inhibition rate) Setaria viridis
CSC(=NOC(=O)C(C)Oc1nc(F)c(Cl)c(N)c1Cl)c1ccc(SC)cc1 (stereo not shown) [Compound 89] | 5 (Level 5: the growth inhibition rate is greater than 85%) | 5 (Level 5: the growth inhibition rate is greater than 85%) | 5 (Level 5: the growth inhibition rate is greater than 85%) | 5 (Level 5: the growth inhibition rate is greater than 85%) | 5 (Level 5: the growth inhibition rate is greater than 85%) | 5 (Level 5: the growth inhibition rate is greater than 85%) | 5 (Level 5: the growth inhibition rate is greater than 85%)
CC(=O)C(=NOC(=O)C(C)Oc1nc(F)c(Cl)c(N)c1Cl)c1ccc(NOc2ccccc2)cc1 (stereo not shown) [Compound 91] | 5 (Level 5: the growth inhibition rate is greater than 85%) | 5 (Level 5: the growth inhibition rate is greater than 85%) | 5 (Level 5: the growth inhibition rate is greater than 85%) | 5 (Level 5: the growth inhibition rate is greater than 85%) | 5 (Level 5: the growth inhibition rate is greater than 85%) | 5 (Level 5: the growth inhibition rate is greater than 85%) | 5 (Level 5: the growth inhibition rate is greater than 85%)
CC(Oc1nc(F)c(Cl)c(N)c1Cl)C(=O)ON=C(Cc1ccccc1)c1ccccc1N (stereo not shown) [Compound 93] | 5 (Level 5: the growth inhibition rate is greater than 85%) | 5 (Level 5: the growth inhibition rate is greater than 85%) | 5 (Level 5: the growth inhibition rate is greater than 85%) | 5 (Level 5: the growth inhibition rate is greater than 85%) | 5 (Level 5: the growth inhibition rate is greater than 85%) | 5 (Level 5: the growth inhibition rate is greater than 85%) | 5 (Level 5: the growth inhibition rate is greater than 85%)
CC(Oc1nc(F)c(Cl)c(N)c1Cl)C(=O)ON=C(C(=O)N(C)C)c1ccccc1 (stereo not shown) [Compound 99] | 5 (Level 5: the growth inhibition rate is greater than 85%) | 5 (Level 5: the growth inhibition rate is greater than 85%) | 5 (Level 5: the growth inhibition rate is greater than 85%) | 5 (Level 5: the growth inhibition rate is greater than 85%) | 5 (Level 5: the growth inhibition rate is greater than 85%) | 5 (Level 5: the growth inhibition rate is greater than 85%) | 5 (Level 5: the growth inhibition rate is greater than 85%)
